Measured values reported in patent publication US20240408082A1, “METHODS FOR TREATING CANCERS AND TUMORS” (BEYONDSPRING PHARMACEUTICALS, INC., priority 2021, published 2024).
Values joined by “and” are separate entries in the source; they are usually repeats but may differ in a detail not shown here. Identical values can stand only once.

Legend:
BXF 2211 = test: 3D clonogenic assay, Example 1, BXF 2211; assay type: cell-based; conditions: model BXF 2211
Experimental: (§1) In the present study, plinabulin was characterized for its ability to inhibit anchorage independent growth and ex vivo colony formation of tumor cells in semi-solid medium. The compound was investigated in 87 out of 93 originally planned tumor xenografts representing all major cancer types using a 3D clonogenic assay in a 96-well format with colony count based on image analysis as read-out. By using this assay, the investigational compound was assessed for the ability to inhibit anchorage independent growth and ex vivo colony formation of tumor cells in semi-solid medium.
A master stock solution of plinabulin was prepared by dissolving the compound in DMSO at a concentration of 9.9 mM. Working stock solutions were prepared by diluting the master stock solution with DMSO to a concentration of 0.99 mM (330-fold the highest test concentration). Small aliquots of the master and working stock were stored at −20° C. […]
Plinabulin was investigated in 87 PDX models representing a number of cancer types. […] The percentage of viable cells was determined in a Neubauer-hemocytometer using trypan blue exclusion. […]
The clonogenic assay was carried out in a 96 well plate format using ultra low attachment plates. […] Cultures were incubated at 37° C. and 7.5% CO2 in a humidified atmosphere 13 days in total and monitored closely for colony growth using an inverted microscope. […]

[1] = test system: 87 PDX models of various histotypes; test: 3D clonogenic assay, Example 1, all PDX models; assay type: cell-based
Experimental: as §1
A master stock solution of plinabulin was prepared by dissolving the compound in DMSO at a concentration of 9.9 mM. Working stock solutions were prepared by diluting the master stock solution with DMSO to a concentration of 0.99 mM (330-fold the highest test concentration). Small aliquots of the master and working stock were stored at −20° C. On each day of an experiment, an aliquot of the working stock was used and stored at room temperature prior to and during treatment. All liquid handling steps were performed using a Tecan Freedom EVO 200 robotic platform. First, serial dilutions of the working stock solution were done in DMSO. The DMSO dilutions were then diluted 1:22 into cell culture medium (IMDM, supplemented with 20% (v/v) fetal calf serum, and 50 μg/ml gentamicin) in an intermediate dilution plate. Finally, 10 μl taken from the intermediate dilution plate were transferred to 140 μl/well of the final assay plate. Thus, the DMSO working stock was diluted 1:330, and the DMSO concentration in the assay was 0.3% v/v in all wells.
Plinabulin was investigated in 87 PDX models representing a number of cancer types. Tumors were passaged as subcutaneous xenografts in NMRI nu/nu mice. At a tumor volume of 400-1000 mm^3 tumor-bearing mice were euthanized and tumors were collected under sterile conditions without delay according to relevant SOPs and the relevant animal welfare guidelines published by the FELASA and the GV-SOLAS. Tumors were mechanically disaggregated and subsequently incubated with an enzyme cocktail consisting of collagenase type IV (41 U/ml), DNase I (125 U/ml), hyaluronidase type III (100 U/ml), and dispase II (1 U/ml) in RPMI 1640 medium (Life Technologies) at 37° C. for 60-120 minutes. Cells were passed through sieves of 100 μm and 40 μm mesh size (Cell Strainer, BD Falcon™), and washed with RPMI 1640 medium (Biochrom). The percentage of viable cells was determined in a Neubauer-hemocytometer using trypan blue exclusion. Aliquots of the cells were frozen down and stored in a liquid nitrogen vapor phase. On each day of an experiment, a frozen aliquot of tumor cells was thawed and used for the preparation of assay plates.
The clonogenic assay was carried out in a 96 well plate format using ultra low attachment plates. For each test, cells were prepared as described above and assay plates were prepared as follows: each test well contained a layer of semi-solid medium with tumor cells (50 μl), and a second layer of medium supernatant with or without test compound (100 μl). The cell layer consisted of 2.5-12.5×10^3 tumor cells per well, which were seeded on day 0 (d0) in 50 μl/well cell culture medium (IMDM, supplemented with 20% (v/v) fetal calf serum, 50 μg/ml gentamicin, and 0.4% (w/v) agar). After 24 h, the soft-agar layer was covered with 90 μl of the same culture medium without agar. Seven days after seeding 10 μl of test compound or control medium was added, and left on the cells for 24 h. Every 96 well plate included six DMSO-treated control wells and drug-treated wells in duplicate at 9 concentrations. After the incubation time of 24 h the supernatant (90 μl medium without agar +10 μl compound/control) was changed against drug free medium and incubated until the end of the study. Cultures were incubated at 37° C. and 7.5% CO2 in a humidified atmosphere 13 days in total and monitored closely for colony growth using an inverted microscope. […]

## CC(C)(C)c1[nH]cnc1/C=c1\[nH]c(=O)/c(=C/c2ccccc2)[nH]c1=O [plinabulin, (3Z,6Z)-3-Benzylidene-6-{[5-(2-methyl-2-propanyl)-1H-imidazol-4-yl]methylene}-2,5-piperazinedione]
BXF 2211
  absolute IC70: 3 nM
[1]; 87 PDX models
  Sensitive Tumors, Number, Based on Abs. IC70: 40 out of 87 and 40/87
  Sensitive Tumors, Number, Based on Rel. IC70: 23/87
  Sensitive Tumors, Percentage, Based on Abs. IC70: 46%
  Sensitive Tumors, Percentage, Based on Rel. IC70: 26%
[1]; all 87 PDX models, 24 h treatment, 13 days culture
  geometric mean absolute IC70, tumor colony formation: 166 nM
[1]; geometric means
  Fold difference of IC70 of sensitive tumors vs. all tumors, Based on Abs. IC70: 6.8 fold
  Fold difference of IC70 of sensitive tumors vs. all tumors, Based on Rel. IC70: 4.6 fold
[1]; sigmoidal concentration-effect curves
  inhibition of tumor colony formation (in words): inhibited tumor colony formation in a concentration-dependent manner in almost all cell lines
